Data on one compound can be found in US9540358B2, “Tricyclic compounds as anticancer agents” (ICAHN SCHOOL OF MEDICINE AT MOUNT SINAI, priority 2011, dated 2017).

Structures are written as SMILES. pIC50: −log10 of the molar value.

In one test the test system is A549luc cells. The experiment in a line: Colony formation (clonogenic) assay, A549luc. It is filed as cell-based. To be noted: 7 days. On the procedure: (§1) Protocol for clonogenic assay follows Sangodkar et al. J Clin Invest 2012; 122:2637-51.
(§2) Cell culture and staining: For both A549luc and H292 cells, 500 cells were seeded into each well of a 6-well plate and allowed to attach for 24 hours before drug treatment. The following day, cells were treated with either the appropriate dose of drug or an equivalent volume of DMSO (two replicates were treated for each condition). For each condition, depleted media was replaced with fresh media containing the equivalent drug dose four days after initial treatment. Cells were harvested either 7 (A549luc) or 8 (H292) days after initial treatment. Briefly, media was aspirated from each well and the cells were washed twice with ice-cold PBS, then plates were allowed to dry at room temperature for 4 hours. Cells were fixed for one hour in a fixing solution consisting of 10% methanol and 10% glacial acetic acid in distilled water, then stained overnight in 1% (w/v) crystal violet dissolved in methanol. The next day, staining solution was aspirated from the wells and plates were washed gently with distilled water to remove excess stain before colony counting. Colonies were imaged on a ChemiDoc XRS+ (Bio-Rad) and images were exported as 8-bit TIFF files. Colonies were counted using the Colony Counter plugin in ImageJ, with colony size defined as between 4 and 400 square pixels, and minimum circularity set at 0.6. Duplicate wells were averaged to obtain a single value for each condition. Results (number of colonies) for A549luc cells are shown in Table 2 and results (number of colonies) for H292 cells are shown in Table 3: […]

A further test concerns H1650 lung cancer cells. The test is described as follows: Cell viability assay (MTT, IC50 determination). The format is cell-based. To be noted: Homo sapiens, NCI-H1650, 48 hours after drug treatment, MTT.
The test system of another test is EGFR-L858R/CCSP mice. The test is described as follows: In vivo lung cancer model. To be noted: i.p. 100 mg/kg every other day, two week treatment period, MRI; DMSO control 20% increase. As for the experimental part:
The in vivo lung cancer model is described in Politi et al., Genes Dev. Jun. 1, 2006 20: 1496-1510. EGFR-L858R/CCSP mice were fed doxycycline-impregnanted food pellets to induce tumor formation. After 8-12 weeks, mice were imaged in a Bruker 4.7T Biospec scanner to confirm lung nodule development. After tumor confirmation, the compound of Example 30 was prepared in DMSO (Sigma) and administered i.p. at 100 mg/kg every other day for two weeks. After treatment, the mice were re-imaged by MRI, and pre-treatment and post-treatment lung volumes were calculated by visible lung opacity present in each axial image using Osirix 4.1.1. DMSO control animals show a 20% increase in tumor volume over two week treatment period. Animals treated with the compound of Example 30 show a 60% decrease in tumor volume over two week treatment period.

For test [1], the system named is BALB/c hearts transplanted into fully allogeneic B6 recipients. The experiment in a line: Heart allograft survival. It is filed as in vivo, mice. Particulars: 100 mg/kg i.p., n=4, p<0.05 vs control; untreated rejected by day 8. On the procedure: To test for a clinically relevant in vivo effect, BALB/c hearts were transplanted into fully allogeneic B6 recipients. While untreated animals rejected their grafts by day 8 n=4, the grafts in the mice treated with 100 mg/kg i.p. of Example 30 lasted 18 days n=4, p<0.05 vs control, a statistically and clinically significant effect.

The test system of another test is naïve CD4 T cells. The test is described as follows: Treg induction from naïve CD4 T cells (Foxp3 expression). The format is cell-based. On the procedure:
Example 30 has been tested for its ability to induce Treg from naïve CD4 T cells. […] Fifty thousand CD4 naïve cells (CD62Lhi, CD25 low, CD4 positive) were incubated with 2 ng/mL TGFβ, 1 ug/mL anti-CD3, 100 ng/mL IL-2, 50000 APCs per well and the compounds 10 μM, 5 μM and 2.5 μM concentrations. The cells were incubated for 3 days and then stained for CD4 and Foxp3 expression. Results were expressed as fold increase over the % induced in control (DMSO) wells (typically 20-25% Foxp3+). AKTi, a small molecule AKT inhibitor, was used as a positive control; it induced about a 4-fold increase. […] The effects of Example 30 on iTreg induction are amplified as the TGFβ concentration decreases.

The next test has as its system H292 cells. The test is described as follows: Colony formation (clonogenic) assay, H292. The format is cell-based. Particulars: 8 days. On the procedure:
as §1, §2

The next test deals with alloreactive T cells. The experiment in a line: Suppression assay using induced Tregs. The format is cell-based.

As for `O=S(=O)(NCCCN1c2ccccc2CCc2ccc(Cl)cc21)c1ccc(OC(F)(F)F)cc1` [Example 30, N-(3-(3-chloro-10,11-dihydro-5H-dibenzo[b,f]azepin-5-yl)propyl)-4-(trifluoromethoxy)benzenesulfonamide], the number of colonies in the test on A549luc cells (5 μM) was 116; in the test on A549luc cells (7.5 μM), 111.5; with A549luc cells (10 μM) it was 67.5; in the test with H292 cells (5 μM), 95; with H292 cells (7.5 μM) it was 74.5; in the test with H292 cells (10 μM), 61. Moreover, the pIC50 in the test with H1650 lung cancer cells was 4.90. Further, in the test with EGFR-L858R/CCSP mice, the “decrease in tumor volume” value is 60%. Further, the heart graft survival in test [1] is 18 days. For the same compound, the “fold increase in iTreg over control (DMSO) wells” value in the test with naïve CD4 T cells (at 2.5 μM, 3 days, 2 ng/mL TGFβ) was “greater than 2 fold”. Further, in the test with naïve CD4 T cells (naïve polyclonal T cells treated with TGFβ and TCR transgenic T cells stimulated in vivo during costimulatory blockade), the “upregulation of Foxp3” value is on record as “facilitated upregulation of Foxp3”. The “suppressive capacity of iTreg induced with or without compound (% inhibition of maximal proliferation)” value in the test on alloreactive T cells is listed as “equivalent suppressive capacity”.
